Legend:
[1] = target: T1, RAD52 (Homo sapiens, UniProt P43351); settings: cited from earlier work
T1 sequence (P43351 1-418): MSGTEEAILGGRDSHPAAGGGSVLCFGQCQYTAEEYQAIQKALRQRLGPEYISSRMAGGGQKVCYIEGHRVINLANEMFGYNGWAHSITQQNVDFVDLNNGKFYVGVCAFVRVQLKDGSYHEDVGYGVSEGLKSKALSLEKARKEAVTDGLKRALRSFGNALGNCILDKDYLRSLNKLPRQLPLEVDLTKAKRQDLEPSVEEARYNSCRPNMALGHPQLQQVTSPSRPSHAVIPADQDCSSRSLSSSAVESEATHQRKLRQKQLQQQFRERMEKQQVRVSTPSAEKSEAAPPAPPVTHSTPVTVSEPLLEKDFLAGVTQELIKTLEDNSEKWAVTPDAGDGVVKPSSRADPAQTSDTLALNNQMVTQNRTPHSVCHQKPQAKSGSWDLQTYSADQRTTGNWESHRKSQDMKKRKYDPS

[2] = target: T1, RAD52; experiment: WaterLOGSY NMR analysis of compound binding to RAD52; parameters: made in house; settings: 20 or 40 μM compound, 3.3 μM RAD52
Experimental: In WaterLOGSY spectrum, if a compound binds to a protein, the compound will receive negative nuclear Overhauser effects (NOEs) due to the slow tumbling of the protein-compound complex, leading to a positive WaterLOGSY peak.
(§1) WaterLOGSY NMR analysis of the compound binding to RAD52 and RPA proteins: Compound binding to RAD52 and RPA proteins was analyzed using water-ligand observation with gradient spectroscopy (WaterLOGSY) NMR experiments (Dalvit et al., 2001, Dalvit et al., 2000). The WaterLOGSY spectra of compounds in the presence of RAD52 or RPA were acquired using a water NOE mixing time of 1 s and a T2 relaxation filter of 50 ms just before data acquisition to suppress the broad signals derived from protein. The protein buffer used in the experiments contains 10 mM Tris-d11, 75 mM KCl, 0.25 mM EDTA, pH 7.5, and 10% D20. All NMR data were acquired on a Bruker Avance II 800 MHz NMR spectrometer equipped with a sensitive cryoprobe and recorded at 25° C. The ^1H chemical shifts were referenced to 2,2-dimethyl-2-silapentane-5-sulfonate (DSS). NMR spectra were processed using NMR Pipe (Delaglio et al., 1995) and analysed using NMR View (Johnson and Blevins, 1994).

[3] = target: T2, RAD52-ssDNA interaction (Homo sapiens, UniProt P43351); experiment: FRET-based ssDNA binding and wrapping assay (RAD52-Cy3-dT30-Cy5 complex); settings: FRET-based competition assay; read-out: IC50, RAD52-ssDNA interaction
T2 construct: made in house
T2 sequence (P43351 1-418): T1 sequence (P43351 1-418)
Experimental: We titrated increasing amounts of each compound into a cuvette containing preformed stoichiometric RAD52-Cy3-dT30-Cy5 complexes (1 nM Cy3-dT30-Cy5 and 8 nM RAD52). […] At each concentration of the compound, the FRET signal was adjusted for the change in Cy3 and Cy5 fluorescence in the presence of the compound, but in the absence of protein.
(§2) FRET-based DNA binding and annealing assays: FRET-based ssDNA binding, dsDNA binding, and annealing assays were carried out as previously described (Grimme et al., 2010, Grimme and Spies, 2011) using Cary Eclipse spectrofluorimeter (Varian) at 25° C. in buffer containing 30 mM Tris-Acetate pH7.5, 1 mM DTT, and 0.1 mg/mL BSA. Cy3 dye was excited at 530 nm and its emission was monitored at 565 nm. Emission of Cy5 acceptor fluorophore excited through the energy transfer from Cy3 donor is monitored at 660 nm simultaneously with emission of Cy3 dye. Both the excitation and the emission slit widths were set to 10 nm.
All experiments were performed in triplicates, and the data are shown as averages and standard deviations for three independent measurements. To remove possible experimental artifacts associated with chromogenic or fluorogenic compounds, as well as with the compounds that may quench or enhance Cy3 or Cy5 fluorescence, we also performed control titrations whereby we titrated each compound into 1 nM Cy3-dT30-Cy5 in the absence of RAD52. For each compound concentration we subtracted the difference in the FRET signal in the presence and absence of the compound from the respective FRET signal in the presence of RAD52. The FRET signal corrected for the compound fluorescence was calculated using the equation: […]
as previously described (Grimme et al., 2010, Grimme and Spies, 2011) and plotted as a function of compound concentration and fitted to the following inhibition model”
(§3) where FRET0 is the initial FRET value of RAD52-ssDNA complex in the absence of the compound and FRETmin is the FRET value at complete inhibition. FRET values were calculated as an average of three or more independent annealing reactions plotted against the concentration of the compound. Inhibition of the RAD52-dsDNA interaction was assayed in a similar experiment, except the stoichiometric complexes containing 1 nM molecules of Cy3-Oligo28-Cy5 duplex DNA and 10 nM RAD52. […] In all experiments, the FRET values for each data point were corrected for the effects of the compounds on the respective substrate in the absence of RAD52.

[4] = target: T3, RPA-ssDNA interaction (Homo sapiens, UniProt P15927+P27694+P35244); experiment: FRET titration of the RPA-Cy3-dT30-Cy5 complex; format: binding
T3 construct: made in house
T3 sequence (P27694 whole entry): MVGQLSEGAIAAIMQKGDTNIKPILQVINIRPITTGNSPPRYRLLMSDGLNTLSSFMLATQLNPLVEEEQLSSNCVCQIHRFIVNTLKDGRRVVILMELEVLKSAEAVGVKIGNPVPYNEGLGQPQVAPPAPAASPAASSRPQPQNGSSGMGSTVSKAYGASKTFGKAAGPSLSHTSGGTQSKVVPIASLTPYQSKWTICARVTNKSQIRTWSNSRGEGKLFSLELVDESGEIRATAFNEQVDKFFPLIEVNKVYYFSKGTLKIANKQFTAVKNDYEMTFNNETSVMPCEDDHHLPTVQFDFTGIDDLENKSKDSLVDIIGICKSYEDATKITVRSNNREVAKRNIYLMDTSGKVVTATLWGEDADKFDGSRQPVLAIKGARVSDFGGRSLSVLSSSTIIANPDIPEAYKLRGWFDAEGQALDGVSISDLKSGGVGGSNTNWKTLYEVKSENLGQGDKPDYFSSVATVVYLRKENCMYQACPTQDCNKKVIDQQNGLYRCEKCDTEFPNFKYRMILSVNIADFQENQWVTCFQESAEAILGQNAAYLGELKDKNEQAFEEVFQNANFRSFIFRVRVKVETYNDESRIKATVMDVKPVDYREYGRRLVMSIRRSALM
T3 sequence (P15927 whole entry): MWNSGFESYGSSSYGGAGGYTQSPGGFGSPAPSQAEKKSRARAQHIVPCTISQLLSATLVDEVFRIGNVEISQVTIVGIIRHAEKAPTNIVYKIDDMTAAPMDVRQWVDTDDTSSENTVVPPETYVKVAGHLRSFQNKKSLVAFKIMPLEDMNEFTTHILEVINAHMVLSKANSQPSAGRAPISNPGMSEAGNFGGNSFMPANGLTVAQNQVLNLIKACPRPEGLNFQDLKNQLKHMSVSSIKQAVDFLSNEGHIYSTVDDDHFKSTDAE
T3 sequence (P35244 whole entry): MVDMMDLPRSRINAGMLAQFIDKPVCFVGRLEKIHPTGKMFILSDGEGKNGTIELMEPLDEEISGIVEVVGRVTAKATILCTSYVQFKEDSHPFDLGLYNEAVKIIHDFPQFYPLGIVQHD
From the text: Compounds ‘1’ and ‘6’ inhibit RAD52 binding to and annealing of the RPA-coated ssDNA: In the cell, ssDNA is typically found in complex with Replication protein A (RPA), which is the major eukaryotic ssDNA-binding protein essential for DNA replication, repair and recombination (Wold, 1997, Oakley and Patrick, 2010, Chen and Wold, 2014). The RPA-ssDNA complex is a natural substrate for the RDA52-mediated strand annealing. To confirm that compounds ‘1’ and ‘6’ can inhibit the RAD52 binding to and annealing of the RPA-coated ssDNA we added stoichiometric amounts of RPA (1 RPA per 30 nucleotides of ssDNA) to the FRET-based ssDNA binding/wrapping and ssDNA annealing experiments described above. RPA binds ssDNA with high affinity and extends the ssDNA to its contour length. In our assays such an extension manifests as a distinct FRET state of ˜0.3, which is readily distinguished from a FRET state of ˜0.48 of free Cy3-dT30-Cy5 ssDNA, as well as ˜0.63 FRET of the stoichiometric ssDNA-RPA-RAD52 complex (see FIG. 2 Supplement 1 and (Grimme and Spies, 2011) for details). […] Both, however, inhibited the RAD52 binding to and wrapping of RPA-coated ssDNA with IC50 values identical to those determined without RPA (FIG. 2e and FIG. 3e).
as §3

[5] = target: T4, RPA (Homo sapiens, UniProt P15927+P27694+P35244); experiment: WaterLOGSY NMR analysis of compound binding to RPA; settings: 20 or 40 μM compound, 3.3 μM RPA
T4 construct: made in house
T4 sequence (P27694 whole entry): as the sequence (P27694 whole entry) above
T4 sequence (P15927 whole entry): as the sequence (P15927 whole entry) above
T4 sequence (P35244 whole entry): as the sequence (P35244 whole entry) above
From the text: Compounds ‘1’ and ‘6’ physically interact with RAD52: To confirm that the selected compounds bind RAD52, we employed water-ligand observation with gradient spectroscopy (WaterLOGSY), an NMR technique, which is based on transfer of magnetization from bulk water to the protein-bound compound of interest (Dalvit et al., 2001, Dalvit et al., 2000). In WaterLOGSY spectrum, if a compound binds to a protein, the compound will receive negative nuclear Overhauser effects (NOEs) due to the slow tumbling of the protein-compound complex, leading to a positive WaterLOGSY peak.
as §1

[6] = target: T5, RAD52-RPA-Cy3-dT30-Cy5 complex (Homo sapiens, UniProt P43351); experiment: FRET-based RAD52 binding/wrapping of RPA-coated ssDNA
T5 construct: made in house
T5 sequence (P27694 whole entry partner, one chain of several): as the sequence (P27694 whole entry) above
T5 sequence (P15927 whole entry partner, one chain of several): as the sequence (P15927 whole entry) above
T5 sequence (P35244 whole entry partner, one chain of several): as the sequence (P35244 whole entry) above
Experimental: RPA binds ssDNA with high affinity and extends the ssDNA to its contour length.
as §3

[7] = target: T6, RAD52-dsDNA interaction (Homo sapiens, UniProt P43351); experiment: FRET-based RAD52-dsDNA binding assay; settings: 1 nM dsDNA, 10 nM RAD52
T6 construct: made in house
T6 sequence (P43351 1-418): T1 sequence (P43351 1-418)
From the text: These assays utilize two complementary single stranded 28-nucleotide-long substrates, which contain either Cy3 (T-28) or Cy5 (P-28) incorporated into the middle of the respective DNA strand. When the substrates are annealed by RAD52, the Cy3 and Cy5 dyes are separated by 3 base pairs and yield a high FRET signal (FIG. 2 Supplement 2). […] The annealing reactions were initiated by mixing two half reactions and observing the change in FRET over time in the presence of varying concentrations of small molecules. An increasing FRET value over time indicates formation of the dsDNA duplex which brings the two dyes in close proximity (FIG. 2 Supplement 2). Fitting the annealing data to a double exponential allowed us to calculate and compare the final extent of annealing at varying concentrations of each compound compared to RAD52 alone. We plotted the final extent of annealing vs the concentration of the compound and calculated an IC50 of annealing inhibition.
where FRET0 is the initial FRET value of RAD52-ssDNA complex in the absence of the compound and FRETmin is the FRET value at complete inhibition. FRET values were calculated as an average of three or more independent annealing reactions plotted against the concentration of the compound. […]

[8] = target: T7, RAD52 (Homo sapiens, UniProt P43351 P43351:1-418); experiment: competition; 10 nM poly(dT)-100 fully inhibits wrapped RAD52-Cy3-dT30-Cy5 complex (100 nM RAD52, 15 nM dT30); 20 mM Hepes pH 7.5, 1 mM DTT, 0.1 mg/mL BSA; settings: tags: 6xHis; chain copies: heptameric ring per 30-mer ssDNA (stated)
T7 sequence: T1 sequence (P43351 1-418)

[9] = target: RPA (RPA70/RPA35/RPA14 heterotrimer) (UniProt P27694;P15927;P35244 P27694:1-616,P15927:1-270,P35244:1-121); experiment: FRET; 1:1 stoichiometric complex, FRET about 0.3 vs about 0.48 for free ssDNA; 30 mM Tris-acetate pH 7.5, 25 C; settings: tags: untagged; label: Cy3 and Cy5 at the ends
Chain of RPA (RPA70/RPA35/RPA14 heterotrimer) (P27694 whole entry, chain 1 of 3): as the sequence (P27694 whole entry) above
Chain of RPA (RPA70/RPA35/RPA14 heterotrimer) (P15927 whole entry, chain 2 of 3): as the sequence (P15927 whole entry) above
Chain of RPA (RPA70/RPA35/RPA14 heterotrimer) (P35244 whole entry, chain 3 of 3): as the sequence (P35244 whole entry) above

[10] = target: T7, RAD52; experiment: method FRET; stoichiometric wrapped complex at about 8 nM RAD52 with 1 nM ssDNA; 30 mM Tris-acetate pH 7.5, 1 mM DTT, 0.1 mg/mL BSA, 25 C; also bound when ssDNA is RPA-coated (FRET about 0.63); settings: tags: 6xHis; chain copies: heptameric ring per 30-mer ssDNA (stated); label: Cy3 and Cy5 at the ends
Experimental: as §2

Q: Which “Effect on supramolecular assembly of RAD52” value [1] does the source give for NC(Cc1cc(O)c(O)cc1O)C(=O)O (racemic) [6-hydroxy-DL-dopa] here?
A: disrupts supramolecular assembly of the RAD52 protein

Q: Which “Binding to RAD52 by WaterLOGSY” value [2] does the source give for O=C(O[C@@H]1O[C@@H]2COC(=O)c3cc(O)c(O)c(O)c3-c3c(cc(O)c(O)c3O)C(=O)O[C@H]([C@H]1O)[C@@H]2O)c1cc(O)c(O)c(O)c1 [NP-004255, corilagin] here?
A: physically interacts with RAD52 protein

Q: What about the IC50 [3] of the same molecule?
A: 1500 ± 200 nM

Q: And the “Effect on the RPA-ssDNA interaction” value [4]?
A: did not affect the RPA-ssDNA complex

Q: And the “Binding to RPA by WaterLOGSY” value [5]?
A: bound RPA

Q: What about the IC50 [6] of the same molecule?
A: 500 ± 100 nM

Q: What about the “Effect on the RAD52-dsDNA interaction” value [7] of the same molecule?
A: no effect

B1: Poly dT100 (ssDNA)
DNA: TTTTTTTTTTTTTTTTTTTTTTTTTTTTTTTTTTTTTTTTTTTTTTTTTTTTTTTTTTTTTTTTTTTTTTTTTTTTTTTTTTTTTTTTTTTTTTTTTTTT
modifications: [none]
Q: Does B1 bind [8]?
A: binds

Q: Does TTTTTTTTTTTTTTTTTTTTTTTTTTTTTT (ssDNA) [Cy3-dT30-Cy5] bind [9]?
A: binds

Q: Does TTTTTTTTTTTTTTTTTTTTTTTTTTTTTT (ssDNA) [Cy3-dT30-Cy5] bind [10]?
A: binds

Source: patent US20180209956A1, “HTS Assay for Identifying Small Molecule Inhibitors of RAD52 and Uses of Identified Small Molecule Inhibitors for Treatment and Prevention of BRCA-Deficient Malignancies” (University of Iowa Research Foundation, priority 2015, published 2018)
